The test system of one assay is FoxO3a. The assay can be described thus: FoxO3a inhibition: GFP-FoxO3a nuclear to cytoplasmic translocation reporter assay. The format is cell-based. As to conditions: U2OS GFP-FoxO3a H212R cells, serum starved overnight, compound 30 minutes, ratio of nuclear to cytosolic GFP intensity, DMSO control 0%, read-out: FoxO AC50. The procedure, abridged:
(§1)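 Serum-starved U2OS cells expressing GFP-FoxO3a H212R treated with compounds 30 min, fixed, imaged. FoxO3a: nuclear/cytosolic GFP ratio, %. AKT: total cellular phospho-AKT (Ser473) antibody staining intensity, %. DMSO set as 0% activity.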
(Reporter assays use an easily measured gene product as a stand-in for the process of interest.)

A further assay concerns AKT. Kind of assay: AKT activation: Phospho-AKT (Ser473) antibody staining in reporter cells. As to conditions: U2OS GFP-FoxO3a H212R cells, serum starved overnight, compound 30 minutes, total cellular intensity of Phospho-AKT (Ser473) staining, DMSO control 0%. The assay is classed as cell-based. The essentials: as §1

The structures appear in SMILES notation. Read-outs that look alike come from different tables or passages of the source. Bounds are passed on as bounds.

As a reminder, the AC50 is the concentration giving half of the maximal activity seen.

With `Cc1cc(C(N)=O)nn1-c1ccc2c(ccn2Cc2ccc([C@H]3C[C@H]4CNC[C@H]4C3)cc2)c1` [Example 39, 5-methyl-1-(1-(4-((3aR,5r,6aS)-octahydrocyclopenta[c]pyrrol-5-yl)benzyl)-1H-indol-5-yl)-1H-pyrazole-3-carboxamide], the AC50 was 175 nM in the assay on FoxO3a (Homo sapiens, U2OS, 0.5 h) and 907 nM in the assay with AKT (Homo sapiens, U2OS, 0.5 h).
The corresponding values for `Cc1cc(C(N)=O)nn1-c1ccc2c(ccn2Cc2ccc(C3=CCOCC3)cc2)c1` [Example 1-3, 1-(1-(4-(3,6-dihydro-2H-pyran-4-yl)benzyl)-1H-indol-5-yl)-5-methyl-1H-pyrazole-3-carboxamide] are 201 nM and greater than 10000 nM.
On the same counts, the results for `Cc1cc(C(N)=O)nn1-c1ccc2c(ccn2Cc2ccc([C@@H]3C[C@@H]4CN(CCS(C)(=O)=O)C[C@@H]4C3)cc2)c1` [Example 42, 5-Methyl-1-(1-(4-((3aR,5r,6aS)-2-(2-(methylsulfonyl)ethyl)octahydrocyclopenta[c]pyrrol-5-yl)benzyl)-1H-indol-5-yl)-1H-pyrazole-3-carboxamide] are 69 nM and 230 nM.
Consider `Cc1cc(C(N)=O)nn1-c1ccc2c(ccn2Cc2ccc(C3=CCN(C)CC3C)cc2)c1` (single isomer, unassigned) [Example 17-3, 1-(1-(4-(1,3-dimethyl-1,2,3,6-tetrahydropyridin-4-yl)benzyl)-1H-indol-5-yl)-5-methyl-1H-pyrazole-3-carboxamide], for which the AC50 with FoxO3a is 251 nM; with AKT, 840 nM.
For the molecule `Cc1cc(C(N)=O)nn1-c1ccc2c(ccn2Cc2ccc(C3CCN(C)CC3)cc2)c1` [Example 2-5, 5-methyl-1-(1-(4-(1-methylpiperidin-4-yl)benzyl)-1H-indol-5-yl)-1H-pyrazole-3-carboxamide], the AC50 came to 281 nM with FoxO3a (Homo sapiens, U2OS, 0.5 h) and 760 nM in the assay with AKT (Homo sapiens, U2OS, 0.5 h).
On to `Cc1cc(C(N)=O)nn1-c1ccc2c(ccn2Cc2ccc(C3CCCN(C)CC3)cc2)c1` (single isomer, unassigned) [Example 29-2, 5-methyl-1-(1-(4-(1-methylazepan-4-yl)benzyl)-1H-indol-5-yl)-1H-pyrazole-3-carboxamide], for which the figures for the AC50 in the assay on FoxO3a and in the assay on AKT were 818 nM and 2100 nM, respectively.
Turning to `Cc1cc(C(N)=O)nn1-c1ccc2c(ccn2Cc2ccc(-c3ccc4nccn4c3)cc2)c1` [Example 1-7, 1-(1-(4-(imidazo[1,2-a]pyridin-6-yl)benzyl)-1H-indol-5-yl)-5-methyl-1H-pyrazole-3-carboxamide], the AC50 is 194 nM in the assay with FoxO3a (Homo sapiens, U2OS, 0.5 h) and 680 nM in the assay on AKT (Homo sapiens, U2OS, 0.5 h).
`Cc1cc(C(N)=O)nn1-c1ccc2c(ccn2Cc2ccc(-c3ccc(S(C)(=O)=O)nc3)cc2)c1` [Example 30-1, 5-methyl-1-(1-(4-(6-(methylsulfonyl)pyridin-3-yl)benzyl)-1H-indol-5-yl)-1H-pyrazole-3-carboxamide]: the AC50 stood at 124 nM with FoxO3a (Homo sapiens, U2OS, 0.5 h) and 633 nM with AKT (Homo sapiens, U2OS, 0.5 h).
Regarding `Cc1cc(C(N)=O)nn1-c1ccc2c(ccn2Cc2ccc(-c3ccc(C#N)cc3)cc2)c1` [Example 1-5, 1-(1-((4′-cyano-[1,1′-biphenyl]-4-yl)methyl)-1H-indol-5-yl)-5-methyl-1H-pyrazole-3-carboxamide], the AC50 with FoxO3a (Homo sapiens, U2OS, 0.5 h) was 285 nM; in the assay on AKT (Homo sapiens, U2OS, 0.5 h), greater than 10000 nM.
The corresponding values for `Cc1cc(C(N)=O)nn1-c1ccc2c(ccn2Cc2ccc(-c3ccc(CN4CCC[C@H]4CO)cc3)cc2)c1` [Example 34-1, (S)-1-(1-((4′-((2-(hydroxymethyl)pyrrolidin-1-yl)methyl)-[1,1′-biphenyl]-4-yl)methyl)-1H-indol-5-yl)-5-methyl-1H-pyrazole-3-carboxamide] are 119 nM and 184 nM.
On the same counts, the results for `Cc1cc(C(N)=O)nn1-c1ccc2c(ccn2Cc2ccc(-c3ccc4cnn(C)c4c3)cc2)c1` [Example 1-22, 5-methyl-1-(1-(4-(1-methyl-1H-indazol-6-yl)benzyl)-1H-indol-5-yl)-1H-pyrazole-3-carboxamide] are 167 nM and 507 nM.

(Values after patent publication US10654828B2 (NOVARTIS AG, priority 2017, dated 2020).)
